In assay [1] the test system is PKBΔph. Briefly: PKBΔph 33P kinase assay. Format: biochemical. How it is done: (§1) All assays (25.5 μl) were carried out at room temperature (21° C.) and were linear with respect to time and enzyme concentrations under the conditions used. Assays were performed for 30 minutes except assays for LCK and PKB which were performed for 15 minutes using Multidrop Micro reagent dispensers (Thermo Electron Corporation, Waltham, Mass. 02454, USA) in a 96-well format. The concentration of […] [γ-^33P] ATP (800 cpm/pmol) in the assays was one of three concentrations (5, 20 or 50 μM) in order to be at or below Km for ATP for the enzyme. Assays were initiated with MgATP and stopped by addition of 5 μl of 0.5M orthophosphoric acid. Assays were then harvested onto P81 filterplates using a unifilter harvester (PerkinElmer, Boston, Mass. 02118, USA), with a wash buffer of 50 mM orthophosphoric acid. Filterplates were then air dried overnight. 10 μl of Microscint O was added per well prior to counting for radioactivity.

The target of assay [2] is T1, PRAK (Homo sapiens, UniProt Q8IW41).
T1 sequence (Q8IW41 1-473): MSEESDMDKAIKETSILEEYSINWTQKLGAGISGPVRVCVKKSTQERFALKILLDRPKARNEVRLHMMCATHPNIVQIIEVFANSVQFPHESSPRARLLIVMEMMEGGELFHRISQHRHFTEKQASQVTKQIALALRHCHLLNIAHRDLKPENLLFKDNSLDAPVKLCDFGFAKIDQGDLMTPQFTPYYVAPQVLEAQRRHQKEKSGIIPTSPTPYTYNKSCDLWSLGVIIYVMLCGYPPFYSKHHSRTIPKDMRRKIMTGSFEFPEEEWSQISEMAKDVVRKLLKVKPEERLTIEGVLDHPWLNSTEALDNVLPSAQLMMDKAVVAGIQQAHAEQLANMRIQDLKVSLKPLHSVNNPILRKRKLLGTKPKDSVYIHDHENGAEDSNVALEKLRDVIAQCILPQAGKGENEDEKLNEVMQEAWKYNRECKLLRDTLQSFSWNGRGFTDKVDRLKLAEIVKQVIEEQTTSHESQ
Briefly: PRAK 33P kinase assay. The note with it: read-out: PRAK activity as percentage of control without inhibitor; for remaining activity at 1 µM: inhibitor 1 μM; for remaining activity at 10 µM: inhibitor 10 μM. Format: biochemical. How it is done:
as §1
MKK1, JNK/SAPK1c, SAPK2a/p38, SAPK2b/p38β2, SAPK3/p38γ, SAPK4/p38δ, MAPK2/ERK2, MAPKAP-K1β, MAPKAP-K2, MSK1, PRAK, PKA, PKCα, PDK1, SGK, p70S6K, GSK3β, ROCK-II, PRK2, AMPK, CHK1, CHK2, CK2, PHK, LCK, were assayed according to Davies et al., (Davies, S. P., Reddy, H., Caivano, M. and Cohen, P. Biochem. J. 351, 95-105, 2000.
CSK and CDK2/cyclinA, were assayed according to Bain et al. (Bain J, McLauchlan H, Elliott M, Cohen P. Biochem J. 371, 199-204, 2003., except that ATP concentrations were either 5, 20 or 50 micromolar so that they were at or below the Km for ATP. The ATP concentrations used were as follows, 5 μM for assays of MKK1, SAPK3, SAPK4, GSK3β, PRK2 CK2 20 μm for assays of JNK, SAPK2β, MAPKAP-K2, MSK1, PRAK, PKA, […], PDK1, SGK, p70S6K, ROCK-II, CHK1, CHK2, CSK, CDK2, and 50 μM for assays of SAPK2a, MAPK2/ERK2, AMPK, LCK, PHK and MAPKAP-K1β.

Assay [3] concerns the target Src (Homo sapiens, UniProt P12931). Briefly: biochemical. Conditions: read-out: Src activity as percentage of control without inhibitor; for remaining activity at 10 µM: inhibitor 10 μM. On the procedure:
as §1, with “Assays” for “All assays (25.5 μl) were carried out at room temperature (21° C.) and were linear with respect to time and enzyme concentrations under the conditions used. Assays”
The following kinases were assayed against the substrates indicated. Aurora B was assayed against the substrate peptide […] (300 μM), ERK8 and MST-2 were both assayed against MBP (0.33 mg/ml). IKKβ was assayed against the substrate peptide […] (300 μM), JNK3 was assayed against 3 μM ATF2[19-96]. MAPKAP-K3 and PKD1 were both assayed against […] (30 μM), MARK3 was assayed against CHKtide ([…]) substrate peptide (300 μM). MNK1 and MNK2 were both assayed against eIF4E protein (0.5 mg/ml). NEK7 was assayed against […] (300 μM), PIM2 was assayed against […] (300 μM), ΔPH PKBβ-S474D was assayed against Crosstide (30 μM), PLK1 was assayed against […] (300 μM). PRK2 was assayed against Long S6 peptide, […] (30 μM), RSK2 was assayed against […] (30 μM), SRC was assayed against cdc2 peptide, […], (300 μM) and SRPK1 was assayed against peptide […] (300 μM). All enzymes were diluted in 50 mM Tris/HCl pH 7.5, 0.1 mM EGTA, 1 mg/ml BSA, 0.1% β-mercaptoethanol buffer and assayed in an incubation containing 50 mM Tris/HCl pH7.5, 0.1 mM EGTA, 0.1% β-mercaptoethanol, CAMK-1 (5-20 mU) diluted in 50 mM Tris/HCl pH 7.5, 0.1 mM EGTA, 1 mg/ml BSA, 0.1% β-mercaptoethanol is assayed against substrate peptide […] in an incubation containing 50 mM Tris/HCl pH 7.5, 0.1 mM EGTA, 0.5 mM CaCl2, 0.3 μM calmodulin, 0.1% β-mereaptoethanol, 300 μM substrate peptide, 10 mM magnesium acetate and 0.05 mM [^33P-γ-ATP] (500-1000 cpm/pmole). EF2K (5-20 mU) diluted in 50 mM Hepes pH 6.6, 0.1% β-mercaptoethanol, 1 mg/ml BSA is assayed against a substrate peptide […] in an incubation containing 50 mM Hepes pH 6.6, 0.2 mM CaCl2, 0.3 μM Calmodulin, 0.05% b-mercaptoethanol, 300 μM substrate peptide, 10 mM magnesium acetate and 0.05 mM [^33P-γ-ATP] (500-1000 cpm/pmole).

Where two headings read alike, the source gives them in different places.

Consider three compounds from US20100063085A1, “METHOD OF TREATING LEARNING IMPAIRMENT IN DOWN'S SYNDROME SUBJECTS” (University Court of The University of Dundee, priority 2008, published 2010).

Src, sequence (P12931 whole entry, species assumed): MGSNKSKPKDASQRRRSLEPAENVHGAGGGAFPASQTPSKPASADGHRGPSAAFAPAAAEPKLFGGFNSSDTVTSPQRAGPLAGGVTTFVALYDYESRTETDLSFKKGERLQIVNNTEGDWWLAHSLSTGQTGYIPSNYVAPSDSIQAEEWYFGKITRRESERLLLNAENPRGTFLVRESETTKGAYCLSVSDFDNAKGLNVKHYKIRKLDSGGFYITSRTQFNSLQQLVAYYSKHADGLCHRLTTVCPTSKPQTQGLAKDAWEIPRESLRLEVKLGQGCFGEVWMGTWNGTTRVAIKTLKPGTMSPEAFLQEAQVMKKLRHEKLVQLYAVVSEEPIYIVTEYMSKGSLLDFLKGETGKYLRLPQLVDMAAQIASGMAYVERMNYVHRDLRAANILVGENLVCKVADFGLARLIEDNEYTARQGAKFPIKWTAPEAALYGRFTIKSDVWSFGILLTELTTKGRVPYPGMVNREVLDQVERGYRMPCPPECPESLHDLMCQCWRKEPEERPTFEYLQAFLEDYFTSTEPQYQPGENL

With `COc1ccc2c(c1)[nH]c1c(C)nccc12` [Harmine], the “PKBΔph activity as percentage of control without inhibitor” value in assay [1] (inhibitor 1 μM) and in assay [1] (inhibitor 10 μM) was 107% throughout. The remaining activity at 1 µM in assay [2] amounted to 81%; in assay [3] it was 108%. Further, the remaining activity at 10 µM in assay [2] turned out to be 75%.

On to `CC1=NCCc2c1[nH]c1cc(O)ccc21` [Harmalol], for which the “PKBΔph activity as percentage of control without inhibitor” value in assay [1] (inhibitor 1 μM) was 92%; in assay [1] (inhibitor 10 μM) it was 58%. The remaining activity at 1 µM stood at 84% in assay [2] and 101% in assay [3] (inhibitor 1 μM). The remaining activity at 10 µM in assay [2] is 78%; in assay [3], 83%.

Regarding `COc1ccc2c3c([nH]c2c1)C(C)=NCC3` [Harmaline], the “PKBΔph activity as percentage of control without inhibitor” value in assay [1] (inhibitor 1 μM) turned out to be 80%; in assay [1] (inhibitor 10 μM), 98%. Also, the remaining activity at 1 µM is 88% in assay [2] and 47% in assay [3] (inhibitor 1 μM). The remaining activity at 10 µM in assay [2] was determined as 93%; in assay [3], 65%.
